Measurements published in paper PMC3669024, “Pharmacological Characterization of a 5-HT1-Type Serotonin Receptor in the Red Flour Beetle, Tribolium castaneum” (PLoS ONE, 2013).
Counter-ions that a name gives are not always drawn.

How the values were obtained:
Trica5-HT1 [1] = target: T1, Trica5-HT1 (Tribolium castaneum, UniProt R9ULB8); assay: Aequorin-luminescence assay, agonist activation of Trica5-HT1 in CHO-WTA11 cells (apoaequorin + Gα16); format: cell-based; conditions: for response at 100 µM agonist: Figure 3A
T1 sequence (R9ULB8 entry or part of it): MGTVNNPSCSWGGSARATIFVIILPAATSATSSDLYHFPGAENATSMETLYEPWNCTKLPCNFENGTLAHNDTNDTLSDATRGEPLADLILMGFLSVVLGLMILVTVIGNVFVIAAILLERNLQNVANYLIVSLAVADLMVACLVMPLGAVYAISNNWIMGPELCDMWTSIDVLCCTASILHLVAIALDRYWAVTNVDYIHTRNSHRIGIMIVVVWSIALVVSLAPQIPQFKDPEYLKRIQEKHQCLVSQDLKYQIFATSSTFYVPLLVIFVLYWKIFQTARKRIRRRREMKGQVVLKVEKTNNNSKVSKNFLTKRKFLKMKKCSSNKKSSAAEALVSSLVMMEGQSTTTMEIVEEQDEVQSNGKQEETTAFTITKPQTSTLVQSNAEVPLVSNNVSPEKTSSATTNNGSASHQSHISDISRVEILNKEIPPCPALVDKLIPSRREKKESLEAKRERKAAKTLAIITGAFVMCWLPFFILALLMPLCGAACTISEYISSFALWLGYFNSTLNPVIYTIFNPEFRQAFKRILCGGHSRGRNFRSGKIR
Method: (§1) General binding studies were performed in Chinese hamster ovary (CHO) WTA11 cells stably coexpressing apoaequorin and the promiscuous Gα16. This allowed us to measure the pharmacology independent of the downstream signaling. CHO-PAM28 cells stably expressing apoaequorin, but not the promiscuous Gα16, and human embryonic kidney cells (HEK) 293 cells were used to measure downstream signaling via Ca^2+ and cAMP, respectively. CHO cell lines were provided by Prof. Marc Parmentier (University of Brussels, Belgium) and Dr. Michel Detheux (Euroscreen S.A., Belgium). HEK293 cells were a gift from Prof. Arnd Baumann (Research Centre Jülich, Germany.
(§2) Cells were cultured in vitro as monolayers at 37°C, 5% CO2 and high relative humidity, and subcultivated twice a week. For transfection of CHO cells, 2.5 ml Opti-MEM®I (Invitrogen), 5 µg plasmid DNA and 12.5 µl Plus^TMreagent (Invitrogen) were mixed, stored at room temperature for 5 min and next repleted with 30 µl Lipofectamine™LTX (Invitrogen). After 30 min incubation at room temperature, this transfection mixture was added dropwise to the cells together with 5 ml medium. HEK293 cells were cotransfected with receptor construct (4 µg) and CRE-luciferase construct (2 µg), consisting of the open reading frame of the reporter gene, luciferase, downstream of a multimerized cAMP-response-element (CRE6x), [39]. All transfections were performed in T75 flasks with a confluency of about 60 percent. Cells were grown overnight, after which 15 ml of medium was added for an additional overnight incubation period.
(§3) The transfected CHO cells were detached with phosphate buffered saline (PBS) containing 0.2% EDTA and collected in DMEM/F-12 (without phenol red, with L-glutamine and 10 mM HEPES) (Gibco). The amount of viable cells was determined using the NucleoCounter NC-100+TM (Chemometic). Cells were pelleted for 4 min at 800 rpm at room temperature and resuspended in BSA-medium (DMEM/F12 without phenol red, with L-glutamine and 10 mM HEPES, supplemented with 0.1% bovine serum albumin) to a concentration of 5×10^6 cells/ml. Coelenterazine H (Invitrogen) was added to a final concentration of 5 µM, and cells were gently shaken for 4 h at room temperature in the dark. After a 10-fold dilution in BSA-medium, cells were incubated another 30 min. The pharmacological ligands were dissolved in BSA-medium. For agonists, 50 µl containing the final ligand concentration was added to appropriate wells of a 96-well plate. For antagonists, 25 µl of the antagonist solution was supplemented with 25 µl of a 5-HT solution. Receptor activity was measured as the light emission after adding 50 µl of the cell suspension. Light emission was measured for 30 s using a Mithras LB940 (Berthold Technologies). Subsequently, cells were lysed with Triton X-100 (0.1% in BSA-medium) and light emission was recorded for another 8 s. BSA-medium was used as a negative control. Light emission from each well was calculated relative to the total response (ligand+Triton X-100) using the output file of Mikrowin2000 software (Mikrotek). Further analysis was done in Graphpad Prism 5.
In order to pharmacologically characterize Trica5-HT1, we used CHO-WTA11 cells stably expressing apoaequorin and the promiscuous Gα16 subunit. […] The dose-response relationship for 5-HT and these synthetic agonists was examined at concentrations ranging from 1 pM to 1 mM (Figure 3B). […] Since the efficacy achieved by any agonist depends on the number of receptors expressed, we measured a dose-response curve for 5-HT in every experiment and normalized all agonist effects to the maximum 5-HT response, set at 100% (Figure 3B).

Trica5-HT1 [2] = target: T1, Trica5-HT1; assay: CRE-luciferase reporter-gene assay, NKH-477 stimulated cAMP in HEK293 cells expressing Trica5-HT1; format: cell-based; conditions: for IC50: NKH-477 stimulated cAMP
Method: as §1, §2
Cotransfected HEK293 cells were detached and the amount of viable cells was determined as described for CHO cells. Cells were pelleted for 4 min at 800 rpm at room temperature and resuspended in DMEM/F12 medium (without phenol red, with L-glutamine and 10 mM HEPES) containing 200 µM 3-isobutyl-1-methylxanthine (IBMX, Sigma-Aldrich) to a concentration of 10^6 cells/ml. The pharmacological ligands were dissolved in DMEM/F12 medium without phenol red containing 200 µM IBMX. The water-soluble forskolin analog NKH-477 was added to a concentration of 20 µM to measure Trica5-ht1-mediated effects on cellular cAMP signaling. In each well of a 96-well plate, 50 µl of ligand suspension and 50 µl of cell suspension were dispensed. […] Light emission was measured for 5 s per well using a Mithras LB940 (Berthold Technologies). […] Data were analyzed as described for CHO cells.
CHO-PAM28 and HEK293 cells were used to determine the downstream signaling pathway of Trica5-HT1. […] Relative high variation in the data can be explained by assay based variation since cells were not counted when dispensed. […]

Trica5-HT1 [3] = target: T1, Trica5-HT1; assay: Aequorin-luminescence assay in CHO-PAM28 cells (no Gα16), Ca2+ signaling of Trica5-HT1; format: cell-based; conditions: CHO-PAM28 cells transfected with the receptor
Method: as §1
Cells were cultured in vitro as monolayers at 37°C, 5% CO2 and high relative humidity, and subcultivated twice a week. […] HEK293 cells were cotransfected with receptor construct (4 µg) and CRE-luciferase construct (2 µg), consisting of the open reading frame of the reporter gene, luciferase, downstream of a multimerized cAMP-response-element (CRE6x), [39]. […]
The transfected CHO cells were detached with phosphate buffered saline (PBS) containing 0.2% EDTA and collected in DMEM/F-12 (without phenol red, with L-glutamine and 10 mM HEPES) (Gibco). The amount of viable cells was determined using the NucleoCounter NC-100+TM (Chemometic). […] Receptor activity was measured as the light emission after adding 50 µl of the cell suspension. […]

Trica5-HT1 [4] = target: T1, Trica5-HT1; assay: Aequorin-luminescence assay, antagonist inhibition of 5-HT mediated activation of Trica5-HT1 in CHO-WTA11 cells; format: cell-based
Method: as §1, §2, §3
Potential antagonists were tested by simultaneously applying 5-HT (100 nM) and a high dose of antagonist (100 µM) to Trica5-HT1 expressing cells (Figure 4A). In addition, the dose-dependence of the antagonistic effects were measured with antagonist concentrations ranging from 10 nM to 1 mM (Figure 4B). […] We used the Gaddum/Schild plot to compare the inhibitory potencies of the antagonists by their pA2 values (i.e. the […] of the concentration of antagonist that doubles the amount of 5-HT required for obtaining the same effect).

Am5-HT1 = test system: Am5-HT1; parameters: method as in PMID 20349263; conditions: cited from earlier work
Pea5-HT1 = test system: Pea5-HT1; parameters: method as in PMID 20233210; conditions: cited from earlier work
[5] = EC50, receptor activation in CHO-WTA11 cells
[6] = logEC50 (mean ± SEM), receptor activation in CHO-WTA11 cells, given as negative log values

## NCCc1c[nH]c2ccc(O)cc12 [5-HT, 5-HT hydrochloride]
Trica5-HT1 [1]; CHO-WTA11 cells
  concentration at which the maximal response was attained: ≥ 10 µM
  response at 100 µM agonist: Significant responses
Trica5-HT1 [1]; [5]
  EC50: 95 nM
Trica5-HT1 [1]; Half-maximal activation (EC50), CHO-WTA11 cells
  EC50: 95.2 nM
Trica5-HT1 [1]; [6]
  EC50: 97.7 nM
Trica5-HT1 [2]
  concentration at which maximal attenuation of cAMP synthesis was attained: ≥ 10 µM
Trica5-HT1 [2]; 5-HT ≥10 µM
  Maximal attenuation of cAMP synthesis: ~40%
Trica5-HT1 [2]; given as negative log value, read-out: logIC50 (mean ± SEM) (converted)
  IC50: 83.2 nM
Trica5-HT1 [2]; read-out: Half maximal reduction of cAMP
  IC50: 82.7 nM
Trica5-HT1 [3]
  effect on Ca2+ signaling: No effect

## COc1ccccc1N1CCN(CCN(C(=O)C2CCCCC2)c2ccccn2)CC1 [WAY-100635, N-{2-[4-(2-methoxyphenyl)-1-piperazinyl]-ethyl}-N-(2-pyridinyl) cyclohexanecarboxamide]
Trica5-HT1 [4]; 5-HT 100 nM, antagonist 10 nM to 1 mM
  inhibition of 5-HT induced responses (words): no clear dose-dependent effect
Trica5-HT1 [4]; inhibition of 5-HT (100 nM) mediated activation, CHO-WTA11 cells
  IC50: no clear dose-dependence of inhibition
Trica5-HT1 [4]; inhibition of 5-HT (100 nM) mediated activation, CHO-WTA11 cells, given as negative log values
  logIC50 (mean ± SEM): no clear dose-dependence of inhibition
Am5-HT1
  antagonist behaviour: partial antagonist
Pea5-HT1
  inhibition of agonist stimulated receptor: effective inhibition

## CCCN(CCC)C1CCc2cccc(O)c2C1 (racemic) [8-OH-DPAT, (±)-8-hydroxy-2-(dipropylamino)tetralin hydrobromide]
Am5-HT1
  agonist behaviour: poor agonist
Trica5-HT1 [1]; CHO-WTA11 cells
  concentrations at which responses were evoked: ≥ 100 µM
  response at 100 µM agonist: Significant responses
Trica5-HT1 [1]; CHO-WTA11 cells, dose-response 1 pM to 1 mM
  agonist behaviour: very poor response
Trica5-HT1 [1]; [5]
  EC50: 551000 nM
Trica5-HT1 [1]; [6]
  EC50: 550000 nM
Pea5-HT1
  agonist behaviour: poor agonist
